Data taken from US20040018941A1, “Fused-benzene derivatives of thiouracil, herbicidal and desiccant compositions contaning them” (ISHIHARA SANGYO KAISHA, LTD., priority 2002, published 2004).

Tests used:
Type in all cases: in vivo
Settings in all cases: rating 0-100 (0 no damage, 100 complete death), 14 days after application
[1] = tested on: common ragweed (Ambrosia artemisiifolia L., AMBEL); test: Post-emerge herbicidal activity, greenhouse screen, AMBEL
Description: (§1) A standard greenhouse herbicide activity screening system was used to evaluate the herbicidal efficacy and crop safety of these test compounds. Seven broadleaf weed species including redroot pigweed (Amaranthus retroflexus, AMARE), velvetleaf (Abutilon theophrasti, ABUTH), sicklepod (Cassia obtusifolia, CASOB), ivyleaf morningglory (Ipomoea hederacea, IPOHE), lambsquarters (Chenopodium album, CHEAL), common ragweed (Ambrosia artemisiifolia L., AMBEL), and cocklebur (Xanthium strumarium, XANST) were used as test species. Four grass weed species including green foxtail (Setaria viridis, SETVI), barnyardgrass (Echinochloa crus-galli, ECHCG), johnsongrass (Sorghum halepense, SORHA), and large crabgrass (Digitaria sanguinalis, DIGSA) were also used. In addition, three crop species, field corn (Zea mays L., var. Dekalb 527, CORN), soybean (Glycine max L., var. Pella 86, SOY), and upland rice (Oryza sp., var. Tebonnet, RICE) were included.
(§2) All plants were grown in 10 cm square plastic pots which were filled with a sandy loam soil mix. For pre-emerge tests, seeds were planted one day prior to application of the test compounds. For post-emerge tests, seeds were planted 8-21 days prior to the test to allow emergence and good foliage development prior to application of the test substances. At the time of the post-emerge application, plants of all species were usually at the 2-3 leaf stage of development.
(§3) All test compounds were dissolved in acetone and applied to the test units in a volume of 187 l/ha. Test materials were applied at rates ranging from 15 g ai/ha to 1000 g ai/ha using a track sprayer equipped with a TJ8001 E even flow flat fan spray nozzle. Plants were arranged on a shelf so that the top of the canopy (post-emerge) or top of the soil surface (pre-emerge) was 40-45 cm below the nozzle. Pressurized air was used to force the test solution through the nozzle as it was mechanically advanced over the top of all test plants/pots. This application simulates a typical commercial field herbicide application.
(§4) In the post-emerge test, a commercial non-ionic surfactant was also included (0.25% v/v) to enhance wetting of the leaf surfaces of target plants. Immediately after application, test units of the pre-emerge applications were watered at the soil surface to incorporate the test materials.
(§5) At 14 days after application of the test materials, phytotoxicity ratings were recorded. A rating scale of 0-100 was used as previously described in Research Methods in Weed Science, 2nd edition, B. Truelove, Ed., Southern Weed Science Society, Auburn University, Auburn, Ala., 1977. Briefly, “0” corresponds to no damage and “100” corresponds to complete death of all plants in the test unit. This scale was used both to determine efficacy against weed species and damage to crop species. Herbicide activity data for various compounds of this invention, which are shown by compound No. in Tables 1-7, are shown in Tables 8 and 9.

[2] = tested on: velvetleaf (Abutilon theophrasti, ABUTH); test: Post-emerge herbicidal activity, greenhouse screen, ABUTH
Description: as §1, §2, §3, §4, §5

[3] = tested on: velvetleaf (Abutilon theophrasti, ABUTH); test: Pre-emerge herbicidal activity, greenhouse screen, ABUTH
Description: as §1, §2, §3, §4, §5

[4] = tested on: lambsquarters (Chenopodium album, CHEAL); test: Pre-emerge herbicidal activity, greenhouse screen, CHEAL
Description: as §1, §2, §3, §4, §5

[5] = tested on: ivyleaf morningglory (Ipomoea hederacea, IPOHE); test: Pre-emerge herbicidal activity, greenhouse screen, IPOHE
Description: as §1, §2, §3, §4, §5

[6] = tested on: green foxtail (Setaria viridis, SETVI); test: Pre-emerge herbicidal activity, greenhouse screen, SETVI
Description: as §1, §2, §3, §4, §5

[7] = tested on: ivyleaf morningglory (Ipomoea hederacea, IPOHE); test: Post-emerge herbicidal activity, greenhouse screen, IPOHE
Description: as §1, §2, §3, §4, §5

[8] = tested on: soybean (Glycine max L., var. Pella 86, SOY); test: Post-emerge crop damage, greenhouse screen, SOY
Description: as §1, §2, §3, §4, §5

[9] = tested on: large crabgrass (Digitaria sanguinalis, DIGSA); test: Post-emerge herbicidal activity, greenhouse screen, DIGSA
Description: as §1, §2, §3, §4, §5

[10] = tested on: soybean (Glycine max L., var. Pella 86, SOY); test: Pre-emerge crop damage, greenhouse screen, SOY
Description: as §1, §2, §3, §4, §5

[11] = tested on: lambsquarters (Chenopodium album, CHEAL); test: Post-emerge herbicidal activity, greenhouse screen, CHEAL
Description: as §1, §2, §3, §4, §5

[12] = tested on: field corn (Zea mays L., var. Dekalb 527, CORN); test: Pre-emerge crop damage, greenhouse screen, CORN
Description: as §1, §2, §3, §4, §5

[13] = tested on: redroot pigweed (Amaranthus retroflexus, AMARE); test: Pre-emerge herbicidal activity, greenhouse screen, AMARE
Description: as §1, §2, §3, §4, §5

[14] = tested on: large crabgrass (Digitaria sanguinalis, DIGSA); test: Pre-emerge herbicidal activity, greenhouse screen, DIGSA
Description: as §1, §2, §3, §4, §5

[15] = tested on: johnsongrass (Sorghum halepense, SORHA); test: Pre-emerge herbicidal activity, greenhouse screen, SORHA
Description: as §1, §2, §3, §4, §5

[16] = tested on: redroot pigweed (Amaranthus retroflexus, AMARE); test: Post-emerge herbicidal activity, greenhouse screen, AMARE
Description: as §1, §2, §3, §4, §5

[17] = tested on: barnyardgrass (Echinochloa crus-galli, ECHCG); test: Pre-emerge herbicidal activity, greenhouse screen, ECHCG
Description: as §1, §2, §3, §4, §5

[18] = tested on: sicklepod (Cassia obtusifolia, CASOB); test: Post-emerge herbicidal activity, greenhouse screen, CASOB
Description: as §1, §2, §3, §4, §5

[19] = tested on: common ragweed (Ambrosia artemisiifolia L., AMBEL); test: Pre-emerge herbicidal activity, greenhouse screen, AMBEL
Description: as §1, §2, §3, §4, §5

[20] = tested on: field corn (Zea mays L., var. Dekalb 527, CORN); test: Post-emerge crop damage, greenhouse screen, CORN
Description: as §1, §2, §3, §4, §5

[21] = tested on: sicklepod (Cassia obtusifolia, CASOB); test: Pre-emerge herbicidal activity, greenhouse screen, CASOB
Description: as §1, §2, §3, §4, §5

[22] = tested on: upland rice (Oryza sp., var. Tebonnet, RICE); test: Post-emerge crop damage, greenhouse screen, RICE
Description: as §1, §2, §3, §4, §5

[23] = tested on: green foxtail (Setaria viridis, SETVI); test: Post-emerge herbicidal activity, greenhouse screen, SETVI
Description: as §1, §2, §3, §4, §5

[24] = tested on: upland rice (Oryza sp., var. Tebonnet, RICE); test: Pre-emerge crop damage, greenhouse screen, RICE
Description: as §1, §2, §3, §4, §5

[25] = tested on: barnyardgrass (Echinochloa crus-galli, ECHCG); test: Post-emerge herbicidal activity, greenhouse screen, ECHCG
Description: as §1, §2, §3, §4, §5

[26] = tested on: johnsongrass (Sorghum halepense, SORHA); test: Post-emerge herbicidal activity, greenhouse screen, SORHA
Description: as §1, §2, §3, §4, §5

Cc1nc2c(Cl)cc(F)c(-n3c(=O)cc(C(F)(F)F)n(C)c3=S)c2o1 [Compound 1-2]
Post-emerge Herbicidal Activity AMBEL ([1]; 63 g ai/ha): 100
Post-emerge Herbicidal Activity AMBEL ([1]; 250 g ai/ha): 100
Post-emerge Herbicidal Activity ABUTH ([2]; 63 g ai/ha): 100
Post-emerge Herbicidal Activity ABUTH ([2]; 250 g ai/ha): 100
Pre-emerge Herbicidal Activity ABUTH ([3]; 63 g ai/ha): 100
Pre-emerge Herbicidal Activity ABUTH ([3]; 250 g ai/ha): 100
Pre-emerge Herbicidal Activity CHEAL ([4]; 63 g ai/ha): 100
Pre-emerge Herbicidal Activity CHEAL ([4]; 250 g ai/ha): 100
Pre-emerge Herbicidal Activity IPOHE ([5]; 63 g ai/ha): 100
Pre-emerge Herbicidal Activity IPOHE ([5]; 250 g ai/ha): 100
Pre-emerge Herbicidal Activity SETVI ([6]; 63 g ai/ha): 100
Pre-emerge Herbicidal Activity SETVI ([6]; 250 g ai/ha): 100
Post-emerge Herbicidal Activity IPOHE ([7]; 63 g ai/ha): 100
Post-emerge Herbicidal Activity IPOHE ([7]; 250 g ai/ha): 100
Post-emerge Herbicidal Activity SOY (crop damage) ([8]; 63 g ai/ha): 100
Post-emerge Herbicidal Activity SOY (crop damage) ([8]; 250 g ai/ha): 100
Post-emerge Herbicidal Activity DIGSA ([9]; 63 g ai/ha): 99
Post-emerge Herbicidal Activity DIGSA ([9]; 250 g ai/ha): 100
Pre-emerge Herbicidal Activity SOY (crop damage) ([10]; 63 g ai/ha): 100
Pre-emerge Herbicidal Activity SOY (crop damage) ([10]; 250 g ai/ha): 100
Post-emerge Herbicidal Activity CHEAL ([11]; 63 g ai/ha): 100
Post-emerge Herbicidal Activity CHEAL ([11]; 250 g ai/ha): 100
Pre-emerge Herbicidal Activity CORN (crop damage) ([12]; 63 g ai/ha): 100
Pre-emerge Herbicidal Activity CORN (crop damage) ([12]; 250 g ai/ha): 100
Pre-emerge Herbicidal Activity AMARE ([13]; 63 g ai/ha): 100
Pre-emerge Herbicidal Activity AMARE ([13]; 250 g ai/ha): 100
Pre-emerge Herbicidal Activity DIGSA ([14]; 63 g ai/ha): 100
Pre-emerge Herbicidal Activity DIGSA ([14]; 250 g ai/ha): 100
Pre-emerge Herbicidal Activity SORHA ([15]; 63 g ai/ha): 100
Pre-emerge Herbicidal Activity SORHA ([15]; 250 g ai/ha): 100
Post-emerge Herbicidal Activity AMARE ([16]; 63 g ai/ha): 100
Post-emerge Herbicidal Activity AMARE ([16]; 250 g ai/ha): 100
Pre-emerge Herbicidal Activity ECHCG ([17]; 63 g ai/ha): 100
Pre-emerge Herbicidal Activity ECHCG ([17]; 250 g ai/ha): 100
Post-emerge Herbicidal Activity CASOB ([18]; 63 g ai/ha): 100
Post-emerge Herbicidal Activity CASOB ([18]; 250 g ai/ha): 100
Pre-emerge Herbicidal Activity AMBEL ([19]; 63 g ai/ha): 100
Pre-emerge Herbicidal Activity AMBEL ([19]; 250 g ai/ha): 100
Post-emerge Herbicidal Activity CORN (crop damage) ([20]; 63 g ai/ha): 25
Post-emerge Herbicidal Activity CORN (crop damage) ([20]; 250 g ai/ha): 35
Pre-emerge Herbicidal Activity CASOB ([21]; 63 g ai/ha): 100
Pre-emerge Herbicidal Activity CASOB ([21]; 250 g ai/ha): 100
Post-emerge Herbicidal Activity RICE (crop damage) ([22]; 63 g ai/ha): 75
Post-emerge Herbicidal Activity RICE (crop damage) ([22]; 250 g ai/ha): 80
Post-emerge Herbicidal Activity SETVI ([23]; 63 g ai/ha): 100
Post-emerge Herbicidal Activity SETVI ([23]; 250 g ai/ha): 100
Pre-emerge Herbicidal Activity RICE (crop damage) ([24]; 63 g ai/ha): 99
Pre-emerge Herbicidal Activity RICE (crop damage) ([24]; 250 g ai/ha): 100
Post-emerge Herbicidal Activity ECHCG ([25]; 63 g ai/ha): 100
Post-emerge Herbicidal Activity ECHCG ([25]; 250 g ai/ha): 100
Post-emerge Herbicidal Activity SORHA ([26]; 63 g ai/ha): 100
Post-emerge Herbicidal Activity SORHA ([26]; 250 g ai/ha): 100
